pIC50: −log10 of the molar value.
Experiments:
[1] = system: Mus musculus; assay: In vivo inhibition of LPS-induced TNF production in mice 50 mg/Kg.; format: functional
[2] = target: MAP kinase p38 (Homo sapiens, UniProt O15264+Q15759+Q16539+P53778); assay: In vitro inhibitory concentration against radioligand [3H]SB-202190 binding to CSBP kinase in human monocytic cell line, THP-1
[3] = target: T1, Polyunsaturated fatty acid 5-lipoxygenase (Rattus norvegicus, UniProt P12527); assay: Inhibitory concentration against 5-lipoxygenase in rat RBL-1 cells; format: cell-based
T1 sequence (P12527 whole entry): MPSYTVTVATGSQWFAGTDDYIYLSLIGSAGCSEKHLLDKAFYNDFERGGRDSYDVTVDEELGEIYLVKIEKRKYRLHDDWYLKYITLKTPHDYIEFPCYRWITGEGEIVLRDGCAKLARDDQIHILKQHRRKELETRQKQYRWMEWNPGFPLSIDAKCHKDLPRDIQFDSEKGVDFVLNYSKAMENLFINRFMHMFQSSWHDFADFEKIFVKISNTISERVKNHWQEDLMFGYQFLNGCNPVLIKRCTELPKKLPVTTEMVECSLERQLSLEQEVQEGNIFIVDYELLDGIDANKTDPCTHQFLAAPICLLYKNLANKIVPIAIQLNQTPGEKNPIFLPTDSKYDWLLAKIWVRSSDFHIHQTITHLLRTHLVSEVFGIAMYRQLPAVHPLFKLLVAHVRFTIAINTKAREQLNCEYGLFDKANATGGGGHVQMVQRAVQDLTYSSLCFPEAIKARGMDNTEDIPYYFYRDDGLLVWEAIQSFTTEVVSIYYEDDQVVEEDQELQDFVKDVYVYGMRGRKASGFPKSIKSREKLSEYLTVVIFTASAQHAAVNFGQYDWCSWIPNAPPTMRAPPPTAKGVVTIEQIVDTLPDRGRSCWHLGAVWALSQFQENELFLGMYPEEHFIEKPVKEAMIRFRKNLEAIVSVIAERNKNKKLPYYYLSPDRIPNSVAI

[4] = target: T2, Prostaglandin G/H synthase 1 (Ovis aries, UniProt P05979); assay: Inhibitory concentration against Prostaglandin H2 synthase 1 (PGHS-1) from ram seminal vesicle
T2 sequence (P05979 whole entry): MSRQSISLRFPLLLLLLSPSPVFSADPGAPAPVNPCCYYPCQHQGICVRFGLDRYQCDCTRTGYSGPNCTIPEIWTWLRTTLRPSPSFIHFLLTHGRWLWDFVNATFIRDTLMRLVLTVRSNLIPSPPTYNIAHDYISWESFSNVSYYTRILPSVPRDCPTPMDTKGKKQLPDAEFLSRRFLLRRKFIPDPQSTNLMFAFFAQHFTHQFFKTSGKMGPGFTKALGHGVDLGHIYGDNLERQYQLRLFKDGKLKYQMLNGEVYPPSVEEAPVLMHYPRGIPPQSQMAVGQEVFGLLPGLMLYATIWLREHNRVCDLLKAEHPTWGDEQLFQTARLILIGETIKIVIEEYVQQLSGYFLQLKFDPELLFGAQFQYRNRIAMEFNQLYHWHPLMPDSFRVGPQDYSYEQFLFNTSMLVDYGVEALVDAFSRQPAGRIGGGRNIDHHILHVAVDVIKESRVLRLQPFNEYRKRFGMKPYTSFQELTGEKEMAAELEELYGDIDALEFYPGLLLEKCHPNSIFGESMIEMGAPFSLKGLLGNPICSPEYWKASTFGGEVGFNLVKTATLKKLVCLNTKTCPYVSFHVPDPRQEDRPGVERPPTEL

| SMILES | Change [1] [%] | IC50 [2] [µM] | pIC50 [3] | pIC50 [4] |
| --- | --- | --- | --- | --- |
| C[S+]([O-])c1ccccc1-n1cnc(-c2ccc(F)cc2)c1-c1ccncc1 (stereo not drawn) | 40 | 0.71 |  |  |
| CSc1ccc(-c2nc3n(c2-c2ccncc2)CCC3)cc1 |  |  | 5.52 | 4.00 |
| CSc1cccc(-c2ncn(CCCN3CCOCC3)c2-c2ccncc2)c1 | -10 | 0.29 |  |  |
| CN(CCCn1cnc(-c2ccc(F)cc2)c1-c1ccncc1)Cc1ccccc1 | -28 | 0.13 |  |  |
| Cc1cc(-c2c(-c3ccc(F)cc3)ncn2CCCN2CCOCC2)cc(C)n1 |  | 25 |  |  |
| C[S+]([O-])c1ccc(-n2cnc(-c3ccc(F)cc3)c2-c2ccncc2)cc1 (stereo not drawn) |  | 0.75 |  |  |
| FC(F)(F)c1cc(-c2ncn(CCCN3CCOCC3)c2-c2ccncc2)cc(C(F)(F)F)c1 |  | 114 |  |  |
| CCN(CC)CCCn1cnc(-c2ccc(F)cc2)c1-c1ccncc1 | -21 | 0.27 |  |  |
| Fc1ccc(-c2ncn(CCCSc3ccccc3)c2-c2ccncc2)cc1 | -42 | 0.08 |  |  |
| Fc1ccc(-c2ncn(CCCCN3CCOCC3)c2-c2ccncc2)cc1 | -40 | 0.48 |  |  |
| O=S(=O)(CCCn1cnc(-c2ccc(F)cc2)c1-c1ccncc1)c1ccccc1 | -42 | 1.81 |  |  |
| CCOCCCn1cnc(-c2ccc(F)cc2)c1-c1ccncc1 | -29 | 0.1 |  |  |
| Fc1ccc(-c2ncn(CCCN3CCCC3)c2-c2ccncc2)cc1 | -17 | 0.34 |  |  |
| CSc1ccccc1-n1cnc(-c2ccc(F)cc2)c1-c1ccncc1 | 29 | 0.08 |  |  |
| Fc1ccc(-c2nc3n(c2-c2ccncc2)CCS3)cc1 |  |  | 5.00 | 5.27 |
| Cc1cc(-c2[nH]c(-c3ccc([S+](C)[O-])cc3)nc2-c2cccc(F)c2)ccn1 (stereo not drawn) | -64 | 0.37 |  |  |
| Clc1cccc(-c2ncn(CCCN3CCOCC3)c2-c2ccncc2)c1 | -49 | 0.21 |  |  |
| COC(=O)CCCn1cnc(-c2ccc(F)cc2)c1-c1ccncc1 | -33 | 0.29 |  |  |
| [O-][S+](CCCn1cnc(-c2ccc(F)cc2)c1-c1ccncc1)c1ccccc1 (stereo not drawn) |  | 0.63 |  |  |
| CSc1ccc(-c2nc(-c3cccc(F)c3)c(-c3ccncc3)[nH]2)cc1 |  | 0.34 |  |  |
| Fc1ccc(-c2ncn(CCCNCc3ccccc3)c2-c2ccncc2)cc1 | -43 | 0.07 |  |  |
| Fc1ccc(-c2ncn(CCCN3CCOCC3)c2-c2ccccn2)cc1 |  | 6.46 |  |  |
| Fc1ccc(-c2ncn(CCCN3CCOCC3)c2-c2ccnc3ccccc23)cc1 | -19 | 9 |  |  |
| Cc1cc(-c2c(-c3ccc(F)cc3)ncn2CCCN2CCOCC2)ccn1 | -37 | 3.05 |  |  |

| SMILES | Change [1] [%] | IC50 [2] [µM] | pIC50 [3] | pIC50 [4] |
| --- | --- | --- | --- | --- |
| CSc1cccc(-n2cnc(-c3ccc(F)cc3)c2-c2ccncc2)c1 | -23 | 0.12 |  |  |
| Fc1ccc(-c2nc[nH]c2-c2ccncc2)cc1 | -82 | 0.21 | < 4.00 | < 4.00 |
| Fc1ccc(-c2ncn(CCCN3CCOCC3)c2-c2cccnc2)cc1 |  | 64.7 |  |  |
| Fc1ccc(-c2ncn(CCN3CCOCC3)c2-c2ccncc2)cc1 | -25 | 0.76 |  |  |
| Fc1ccc(-c2ncn(C3CC3)c2-c2ccncc2)cc1 | -79 | 0.08 | 4.22 | 4.80 |
| CC(C)(C)n1cnc(-c2ccc(F)cc2)c1-c1ccncc1 | -35 | 4.74 |  |  |
| Fc1ccc(-c2ncn(CCCN3CCCCC3)c2-c2ccncc2)cc1 | -26 | 1.17 |  |  |
| C[S+]([O-])c1cccc(-n2cnc(-c3ccc(F)cc3)c2-c2ccncc2)c1 (stereo not drawn) | -20 | 0.52 |  |  |
| CSc1ccc(-n2cnc(-c3ccc(F)cc3)c2-c2ccncc2)cc1 | -20 | 1.47 |  |  |
| NCCCn1cnc(-c2ccc(F)cc2)c1-c1ccncc1 |  | 0.15 |  |  |
| C[S+]([O-])c1ccc(-c2nc(-c3ccc(F)cc3)c(-c3ccncc3)[nH]2)cc1 (stereo not drawn) [SB-203580] | -83 |  |  |  |
| FC(F)(F)c1ccc(-c2ncn(CCCN3CCOCC3)c2-c2ccncc2)cc1 |  | 2.98 |  |  |
| CC(C)n1cnc(-c2ccc(F)cc2)c1-c1ccncc1 | -56 | 0.12 |  |  |
| FC(F)(F)c1cccc(-c2ncn(CCCN3CCOCC3)c2-c2ccncc2)c1 |  | 0.46 |  |  |
| CSCCCn1cnc(-c2ccc(F)cc2)c1-c1ccncc1 | -49 | 0.19 |  |  |
| Fc1ccc(-c2ncn(CCCOc3ccccc3)c2-c2ccncc2)cc1 | -14 | 0.07 |  |  |
| Nc1cc(-c2c(-c3ccc(F)cc3)ncn2CCCN2CCOCC2)ccn1 | -38 | 1.18 |  |  |
| CS(=O)(=O)CCCn1cnc(-c2ccc(F)cc2)c1-c1ccncc1 |  | 0.51 |  |  |
| C[S+]([O-])c1cccc(-c2ncn(CCCN3CCOCC3)c2-c2ccncc2)c1 (stereo not drawn) |  | 4.95 |  |  |
| C[S+]([O-])CCCn1cnc(-c2ccc(F)cc2)c1-c1ccncc1 (stereo not drawn) | -43 | 1.4 |  |  |
| O=C(O)CCCn1cnc(-c2ccc(F)cc2)c1-c1ccncc1 | -47 | 3.83 |  |  |
| Fc1ccc(-c2ncn(CCCN3CCOCC3)c2-c2ccncc2)cc1 [SB-210313] | -55 |  | < 4.00 |  |
| Fc1ccc(-c2ncn(CCCN3CCOCC3)c2-c2ccnc(Cl)c2)cc1 |  | 1.89 |  |  |
| Clc1ccc(-c2ncn(CCCN3CCOCC3)c2-c2ccncc2)cc1Cl | -73 | 0.32 | < 4.00 | < 4.00 |
